What was measured:
[1] = Ethanol concentration in the blood after ingestion of ethanol (ADH method); type: in vivo, CDF1 male mice; details: mice; for Ethanol concentration in the blood, Mean: ethanol 3.0 g/kg oral, theanine 100 mg/kg
Description: (§1) Ethanol was ingested to CDF1 male mice 3.0 g/weight by kg by oral administration. Theanine was ingested to the abdominal cavity of each mouse once before ingestion of ethanol. Concentration of ethanol in the blood and concentration of lipid peroxide in the liver were measured. GSH concentration was also measured. Furthermore, alcohol dehydrogenase, aldehyde dehydrogenase and enzyme activity of […] were also measured.
The concentration of ethanol in the blood was measured by the following ADH method. 0.1 mL of blood was added to 0.8 mL of 0.33 N perchloric acid. After execution of a vortex process, a centrifugal process was carried out under the condition of 1200 g for 5 minutes. 0.1 mL of supernatant was mixed with 0.1 mL of buffer liquid containing […] of sodium phosphate/semicarbazide buffer liquid (pH8.7) and 0.48 mM of NAD. 0.02 mL of ADH (≧32 IU/mL) was further added to the mixture and incubated at 37° C. for 25 minutes. Thereafter, absorbance was measured at 340 nm. An unknown sample concentration was calculated by the comparison of ethanol concentration with known standard sample data.

[2] = test system: lipid peroxide in the liver; assay: Lipid peroxide concentration in the liver after ingestion of ethanol (TBA fluorometry); type: in vivo, CDF1 male mice; details: mouse liver; for Lipid peroxide concentration, Mean: ethanol 3.0 g/kg oral, theanine
Description: as §1
(§2) The lipid peroxide concentration in the liver was measured in the following method (TBA fluorometry). 0.1 mL of liver sample (2% homogenate in physiological salt solution) was added with 0.5 mL of 3% SDS, 1.5 mL of 2.0 M acetic acid buffer liquid (pH3.6), 1.5 mL of 0.8% thiobarbituric acid and 0.4 mL of purified water so that a total amount was 4.0 mL. In a standard sample, 20 μL of 50 μmol/L malondialdehyde (MDA) was added instead of the above liver sample and 0.48 purified water was added. The solution was heat-treated in boiling water for 75 minutes and thereafter, cooled for 5 minutes. 1.0 mL of 0.2 N chloride and 5.0 mL of n-butanol were mixed to the cooled substance and thereafter, shaken for 30 seconds. 1200 g of substance was centrifugally processed for 15 minutes. Supernatant was sampled and fluorometry (excitation wavelength: 515 nm; and fluorescent wavelength: 553 nm) was carried out. The unknown sample was calculated using calibration curve.

[3] = test system: GSH concentration in the liver; assay: GSH concentration in the liver after ingestion of ethanol; type: in vivo, CDF1 male mice; details: mouse liver, % of normal state
Description: as §1
(§3) The GSH concentration in the liver was measured by the following method (HiSSIN-Hilf). 5% homogenate of the liver or heart was prepared in a 0.1 M sodium phosphate-0.005 M EDTA buffer liquid (pH 8.0) using a potter type Teflon homogenizer while being iced. 0.25 mL of 25% metaphosphoric acid was added to 0.75 mL of homogenate liquid and mixed well. 10000 g of substance was centrifugally processed for 30 minutes. Thereafter, supernatant was sampled and diluted by 50 times with 0.1 M sodium phosphate-0.005 M EDTA buffer liquid (pH 8.0). To 0.20 mL of the diluted liquid was added 3.6 mL of 0.1 M sodium phosphate-0.005 M EDTA buffer liquid (pH 8.0) and 0.20 mL of 0.1% o-phthalaldehyde (OPT) -methanol liquid. The mixture was left at a room temperature for 5 minutes and thereafter, the fluorometry (excitation wavelength: 350 nm; and fluorescent wavelength: 420 nm) was carried out. The unknown sample was calculated using calibration curve.

[4] = test system: alcohol dehydrogenase; assay: Liver alcohol dehydrogenase (ADH) activity after ingestion of ethanol; type: in vivo, CDF1 male mice; details: mouse liver, 3 hours after ingestion of ethanol
Description: as §1

[5] = test system: cytochrome P2E1 (CYP2E1); assay: Liver CYP2E1 enzyme activity after ingestion of ethanol (HPLC, para-nitrophenol); type: in vivo, CDF1 male mice; details: mouse liver, 3 hours after ingestion of ethanol
Description: as §1

[6] = test system: aldehyde dehydrogenase; assay: Liver aldehyde dehydrogenase (ALDH) activity after ingestion of ethanol; type: in vivo, CDF1 male mice; details: mouse liver, 3 hours after ingestion of ethanol
Description: as §1

[7] = test system: GPT; assay: Chronic administration, alcoholic liver injury: GPT in the blood; type: in vivo, CDF1 male mice; details: mice, ethanol 1.0 or 2.0 g/kg oral twice a day, theanine 100 mg/kg abdominal cavity, ten days (FIG. 6)
Description: Ethanol was ingested to CDF1 male mice (5 weeks old) 1.0 g/kg-weight or 2.0 g/kg-weight by oral administration twice in a day. Theanine was ingested to the abdominal cavity of each mouse 100 mg/kg-weight. After ingestion of ethanol and theanine for ten days, concentrations of GOT, GPT, and γ-GTP in the blood were measured. Concentrations of lipid peroxide and GSH in the liver were measured.
(§4) The concentrations of GOT and […] in the blood were measured by using the […] C-test WAKO (WAKO Pure Chemical Industries, Ltd). The concentration of γ-GTP was measured by using the γ-GTP C-test WAKO (WAKO Pure Chemical Industries, Ltd) Concentrations of lipid peroxide and GSH in the liver were measured by the method written in Embodiment 1.
The concentration of GPT was measured by the following method. 0.02 mL of serum was added to 0.5 mL of GPT-measuring-substrate-buffer and incubated at 37° C. for 5 minutes. Thereafter, 0.5 mL of coloring reagent was added, incubated at 37° C. for 20 minutes. 2.0 mL of stop solution was added to the mixture. Thereafter absorbance was measured at 555 nm. GPT activity (Karmen unit) in the blood was calculated by the comparison of GPT activity with known standard sample data plot.

[8] = test system: GSH in the liver; assay: Chronic administration, alcoholic liver injury: GSH in the liver; type: in vivo, CDF1 male mice; details: mice, ethanol 1.0 or 2.0 g/kg oral twice a day, theanine 100 mg/kg abdominal cavity, ten days (FIG. 7)
Description: as §3

[9] = test system: mice; type: in vivo; details: oral administration of theanine by 5 g/kg
Text: Theanine used in the invention has a high security. […] Furthermore, theanine is known as a principal component of deliciousness of tea and used as a food additive for use as gustatory. An amount of theanine to be added is not limited under the Food Sanitation Law. Moreover, differing from conventional medical substances, theanine has no adverse side effect. Consequently, the composition of the invention can be used as a safe and effective alcohol-metabolism enhancing composition.

[10] = test system: lipid peroxide in the liver; assay: Chronic administration, alcoholic liver injury: lipid peroxide in the liver; type: in vivo, CDF1 male mice; details: mice, ethanol 1.0 or 2.0 g/kg oral twice a day, theanine 100 mg/kg abdominal cavity, ten days
Description: as §2, with “1.0 mL of 0.2 N chloride and 5.0 mL of n-butanol were mixed to the cooled substance and thereafter, shaken for 30 seconds. 1200 g of substance was centrifugally processed for 15 minutes. Supernatant was sampled and fluorometry (excitation wavelength: 515 nm; and fluorescent wavelength: 553 nm) was carried out.” left out
Ethanol was ingested to CDF1 male mice (5 weeks old) 1.0 g/kg-weight or 2.0 g/kg-weight by oral administration twice in a day. […] After ingestion of ethanol and theanine for ten days, concentrations of GOT, GPT, and γ-GTP in the blood were measured. Concentrations of lipid peroxide and GSH in the liver were measured.
as §4

## CCO [Ethanol]
[1]; time 0 h
  Ethanol concentration in the blood, Mean: 0 mg/mL
[1]; time 0.5 h
  Ethanol concentration in the blood, Mean: 0.498 mg/mL
[1]; time 1 h
  Ethanol concentration in the blood, Mean: 0.108 mg/mL
[1]; time 3 h
  Ethanol concentration in the blood, Mean: 0.022 mg/mL
[2]; time 0 h
  Lipid peroxide concentration, Mean: 0.617 mg/mL
  Lipid peroxide concentration (%) of the value in the normal state: 100%
[2]; time 0.5 h
  Lipid peroxide concentration, Mean: 0.573 mg/mL
  Lipid peroxide concentration (%) of the value in the normal state: 93%
[2]; time 1 h
  Lipid peroxide concentration, Mean: 0.565 mg/mL
  Lipid peroxide concentration (%) of the value in the normal state: 92%
[2]; time 2 h
  Lipid peroxide concentration, Mean: 0.580 mg/mL
  Lipid peroxide concentration (%) of the value in the normal state: 94%
[2]; time 3 h
  Lipid peroxide concentration, Mean: 1.036 mg/mL
  Lipid peroxide concentration (%) of the value in the normal state: 168%
[2]; time 5 h
  Lipid peroxide concentration, Mean: 0.568 mg/mL
  Lipid peroxide concentration (%) of the value in the normal state: 92%
[2]; only ethanol ingested, peak value (3 h in Table 2)
  lipid peroxide: 1.036 u mol/g protein
[3]; time 0 h
  GSH concentration (%), Mean: 100.00%
[3]; time 0.5 h
  GSH concentration (%), Mean: 79.84%
[3]; time 1 h
  GSH concentration (%), Mean: 78.83%
[3]; time 2 h
  GSH concentration (%), Mean: 81.57%
[3]; time 3 h
  GSH concentration (%), Mean: 75.96%
[3]; time 5 h
  GSH concentration (%), Mean: 65.50%
[3]; time 5 h, listed as ethanol
  GSH concentration (%), Mean: 65.5%
[4]
  ADH activity as compared with control (normal state): about 123%
  ADH activity, Mean: 9.13 μmol/min · mg protein
[5]
  CYP2E1 activity, Mean: 20.4 nmol/mg protein/min
[6]
  ALDH activity as compared with control: about 63.5%
  ALDH activity, Mean: 5.80 μmol/min · mg protein
[7]
  GPT concentrations in the blood: increased
[8]
  GSH concentrations in the liver: decreased

## CCNC(=O)CC[C@H](N)C(=O)O [Theanine, theanine]
[1]; ethanol 3.0 g/kg, theanine 100 mg/kg 30 minutes after ethanol
  AUC0-3 hr of blood ethanol reduced by joint use of theanine as compared with only ethanol: 76%
[9]
  Mortality in acute toxicity test: no mice died
[7]
  GPT concentrations in the blood: increase of the GPT concentrations could be reduced
[10]
  lipid peroxide in the liver: increase of lipid peroxide in the liver would be reduced
[8]
  GSH concentrations in the liver: decrease of the GSH could be reduced

Source: US20070213400A1, “ALCOHOL-METABOLISM ENHANCING COMPOSITION AND INGESTA CONTAINING THE SAME” (Taiyokagaku Co., Ltd., priority 2004, published 2007)
